Organism: Rattus norvegicus
Assay: Open TG-GATES - Regimen: Single
Assay type: toxicity, organism-based, Sprague-Dawley
Design: regimen Single, gender Male, age 6 weeks
Conditions: in vivo, iv, 0 mg/kg, route intravenous injection, dose level Control; for APTT / Bas / Eos / Fbg / Hb / Ht / Lym / MCH / MCHC / MCV / Mono / Neu / PT / Plat / RBC / Ret / WBC: tissue Blood; for KIDNEY_L / KIDNEY_R / KIDNEY_TOTAL: tissue Kidney; for LIVER: tissue Liver; for A/G / ALP / ALT / AST / BUN / CRE / Ca / Cl / DBIL / GLC / IP / K / LDH / Na / PL / RALB / TBIL / TC / TG / TP / gamma-GTP: tissue Plasma

SMILES: CN(C)c1ncnc2c1ncn2[C@@H]1O[C@H](CO)[C@@H](N)[C@H]1O [PUROMYCIN AMINONUCLEOSIDE]
- TERMINAL_BW (3 h): 211.9 g
- APTT (3 h): 22.7 s
- Bas (3 h): 0%
- Eos (3 h): 1%
- Fbg (3 h): 253 mg/dL
- Hb (3 h): 12.7 g/dL
- Ht (3 h): 37.2%
- Lym (3 h): 82.6%
- MCH (3 h): 21.3 pg
- MCHC (3 h): 34.1%
- MCV (3 h): 62.5 fL
- Mono (3 h): 2.2%
- Neu (3 h): 13.6%
- PT (3 h): 16.1 s
- Plat (3 h): 120.5 x10_4/uL
- RBC (3 h): 594.8 x10_4/ul
- Ret (3 h): 7.1%
- WBC (3 h): 122.5 x10_2/uL
- KIDNEY_L (3 h): 0.9 g
- KIDNEY_R (3 h): 0.9 g
- KIDNEY_TOTAL (3 h): 1.9 g
- LIVER (3 h): 9.5 g
- A/G (3 h): 1.2
- ALP (3 h): 1324.8 IU/L
- ALT (3 h): 32.6 IU/L
- AST (3 h): 66.4 IU/L
- BUN (3 h): 13.2 mg/dL
- CRE (3 h): 0.2 mg/dL
- Ca (3 h): 11 mg/dL
- Cl (3 h): 105.2 meq/L
- DBIL (3 h): 0.002 mg/dL
- GLC (3 h): 191.4 mg/dL
- IP (3 h): 7.7 mg/dL
- K (3 h): 4.6 meq/L
- LDH (3 h): 171.2 IU/L
- Na (3 h): 140.4 meq/L
- PL (3 h): 130.2 mg/dL
- RALB (3 h): 2.9 g/dL
- TBIL (3 h): 0.022 mg/dL
- TC (3 h): 68 mg/dL
- TG (3 h): 69 mg/dL
- TP (3 h): 5.3 g/dL
- gamma-GTP (3 h): 1 IU/L
- TERMINAL_BW (6 h): 212.9 g
- APTT (6 h): 22 s
- Bas (6 h): 0%
- Eos (6 h): 1%
- Fbg (6 h): 301.2 mg/dL
- Hb (6 h): 12.7 g/dL
- Ht (6 h): 37.4%
- Lym (6 h): 81.6%
- MCH (6 h): 21.8 pg
- MCHC (6 h): 34.1%
- MCV (6 h): 64 fL
- Mono (6 h): 2.6%
- Neu (6 h): 14%
- PT (6 h): 16 s
- Plat (6 h): 122.7 x10_4/uL
- RBC (6 h): 584.8 x10_4/ul
- Ret (6 h): 8.2%
- WBC (6 h): 100.6 x10_2/uL
- KIDNEY_L (6 h): 0.9 g
- KIDNEY_R (6 h): 0.9 g
- KIDNEY_TOTAL (6 h): 1.9 g
- LIVER (6 h): 9.4 g
- A/G (6 h): 1.3
- ALP (6 h): 1216.4 IU/L
- ALT (6 h): 37.8 IU/L
- AST (6 h): 70 IU/L
- BUN (6 h): 11.4 mg/dL
- CRE (6 h): 0.2 mg/dL
- Ca (6 h): 11.2 mg/dL
- Cl (6 h): 106.4 meq/L
- DBIL (6 h): 0 mg/dL
- GLC (6 h): 188.8 mg/dL
- IP (6 h): 8.3 mg/dL
- K (6 h): 4.3 meq/L
- LDH (6 h): 177.8 IU/L
- Na (6 h): 140.4 meq/L
- PL (6 h): 140.2 mg/dL
- RALB (6 h): 3 g/dL
- TBIL (6 h): 0.022 mg/dL
- TC (6 h): 80 mg/dL
- TG (6 h): 70.6 mg/dL
- TP (6 h): 5.3 g/dL
- gamma-GTP (6 h): 1.4 IU/L
- TERMINAL_BW (9 h): 212.6 g
- APTT (9 h): 21.9 s
- Bas (9 h): 0%
- Eos (9 h): 1%
- Fbg (9 h): 314.6 mg/dL
- Hb (9 h): 12.9 g/dL
- Ht (9 h): 37.9%
- Lym (9 h): 76.2%
- MCH (9 h): 20.7 pg
- MCHC (9 h): 33.9%
- MCV (9 h): 61 fL
- Mono (9 h): 2.8%
- Neu (9 h): 19.2%
- PT (9 h): 16.2 s
- Plat (9 h): 126.3 x10_4/uL
- RBC (9 h): 621.4 x10_4/ul
- Ret (9 h): 7.1%
- WBC (9 h): 94.1 x10_2/uL
- KIDNEY_L (9 h): 1 g
- KIDNEY_R (9 h): 1 g
- KIDNEY_TOTAL (9 h): 1.9 g
- LIVER (9 h): 9.1 g
- A/G (9 h): 1.2
- ALP (9 h): 1259.6 IU/L
- ALT (9 h): 38.2 IU/L
- AST (9 h): 73.2 IU/L
- BUN (9 h): 11.6 mg/dL
- CRE (9 h): 0.1 mg/dL
- Ca (9 h): 11.1 mg/dL
- Cl (9 h): 104.4 meq/L
- DBIL (9 h): 0 mg/dL
- GLC (9 h): 191.6 mg/dL
- IP (9 h): 9.4 mg/dL
- K (9 h): 4.3 meq/L
- LDH (9 h): 149.4 IU/L
- Na (9 h): 140 meq/L
- PL (9 h): 136.6 mg/dL
- RALB (9 h): 3 g/dL
- TBIL (9 h): 0.028 mg/dL
- TC (9 h): 73.8 mg/dL
- TG (9 h): 71.2 mg/dL
- TP (9 h): 5.5 g/dL
- gamma-GTP (9 h): 1.4 IU/L
- TERMINAL_BW (24 h): 221.6 g
- APTT (24 h): 21.5 s
- Bas (24 h): 0%
- Eos (24 h): 0.8%
- Fbg (24 h): 281.4 mg/dL
- Hb (24 h): 12.6 g/dL
- Ht (24 h): 37.2%
- Lym (24 h): 78.8%
- MCH (24 h): 21.1 pg
- MCHC (24 h): 34%
- MCV (24 h): 62.1 fL
- Mono (24 h): 2.8%
- Neu (24 h): 17%
- PT (24 h): 15.9 s
- Plat (24 h): 132.3 x10_4/uL
- RBC (24 h): 597.8 x10_4/ul
- Ret (24 h): 7%
- WBC (24 h): 96.2 x10_2/uL
- KIDNEY_L (24 h): 0.9 g
- KIDNEY_R (24 h): 1 g
- KIDNEY_TOTAL (24 h): 1.9 g
- LIVER (24 h): 10.4 g
- A/G (24 h): 1.3
- ALP (24 h): 1657.8 IU/L
- ALT (24 h): 47.4 IU/L
- AST (24 h): 78.2 IU/L
- BUN (24 h): 19.2 mg/dL
- CRE (24 h): 0.2 mg/dL
- Ca (24 h): 11 mg/dL
- Cl (24 h): 105 meq/L
- DBIL (24 h): 0 mg/dL
- GLC (24 h): 186.6 mg/dL
- IP (24 h): 7 mg/dL
- K (24 h): 4.7 meq/L
- LDH (24 h): 234.6 IU/L
- Na (24 h): 140.4 meq/L
- PL (24 h): 136.4 mg/dL
- RALB (24 h): 3 g/dL
- TBIL (24 h): 0.012 mg/dL
- TC (24 h): 68.4 mg/dL
- TG (24 h): 88.8 mg/dL
- TP (24 h): 5.3 g/dL
- gamma-GTP (24 h): 1.2 IU/L

Reference: ChEMBL document CHEMBL3885861, “Open TG-GATES”
